Patent US20260130395A1, “Water Dispersible Botanical Compositions” (Aquila Black Limited, priority 2021, published 2026)

Columns and labels:
Format in all cases: physicochemical
[1] = Stability of cannabinoid entourage and Vitamin E components of the powder concentrate by LCMSMS; details: for Stability of Plant-Derived Cannabinoid Compounds in Powder Concentrate: powder stored at 21-25° C.
Description: At each time period, 0.05 g of powder was dissolved in 10 ml-15 of ethanol, diluted to fall within the analytical range, and injected into the LCMSMS for analysis.

[2] = Stability of cannabinoid compounds and Vitamin E components in Beverage 2 (AB Red) by LCMSMS; details: monitored 570 days
[3] = Stability of cannabinoid compounds and Vitamin E components in Beverage 1 (AB White) by LCMSMS; details: for storage time after which some slight degradation is shown: monitored 570 days

In the case of `C=C(C)[C@@H]1CCC(C)=C[C@H]1c1c(O)cc(CCCCC)cc1O` [CBD, cannabidiol, reference compound], the “degradation over the entire period (in words)” value ([1]; powder concentrate stored at 21-25° C., 570 days) is reported as “no significant degradation”, the “Stability of Plant-Derived Cannabinoid Compounds in Powder Concentrate” value (from here on “Stability … in Powder Concentrate”) ([1]; 0 days) is reported as 5.85 mg/g powder and the “Stability … in Powder Concentrate” value ([1]; 1 days) is reported as 5.69 mg/g powder. For the same molecule, the “Stability … in Powder Concentrate” value ([1]; 2 days) was 5.76 mg/g powder, the “Stability … in Powder Concentrate” value ([1]; 3 days) was 5.8 mg/g powder and the “Stability … in Powder Concentrate” value ([1]; 5 days) was 5.84 mg/g powder. The “Stability … in Powder Concentrate” value ([1]; 8 days) was 5.91 mg/g powder, the “Stability … in Powder Concentrate” value ([1]; 9 days) was 6.01 mg/g powder and the “Stability … in Powder Concentrate” value ([1]; 10 days) was 5.69 mg/g powder. For the same molecule, the “Stability … in Powder Concentrate” value ([1]; 11 days) was 6.00 mg/g powder, the “Stability … in Powder Concentrate” value ([1]; 12 days) was 5.76 mg/g powder and the “Stability … in Powder Concentrate” value ([1]; 15 days) was 5.85 mg/g powder. The “Stability … in Powder Concentrate” value ([1]; 16 days) was 5.97 mg/g powder, the “Stability … in Powder Concentrate” value ([1]; 17 days) was 5.97 mg/g powder and the “Stability … in Powder Concentrate” value ([1]; 18 days) was 6.01 mg/g powder. For the same molecule, the “Stability … in Powder Concentrate” value ([1]; 19 days) was 5.74 mg/g powder, the “Stability … in Powder Concentrate” value ([1]; 22 days) was 5.84 mg/g powder and the “Stability … in Powder Concentrate” value ([1]; 23 days) was 6.10 mg/g powder. The “Stability … in Powder Concentrate” value ([1]; 24 days) was 5.89 mg/g powder, the “Stability … in Powder Concentrate” value ([1]; 25 days) was 6.01 mg/g powder and the “Stability … in Powder Concentrate” value ([1]; 26 days) was 6.00 mg/g powder. For the same molecule, the “Stability … in Powder Concentrate” value ([1]; 29 days) was 5.97 mg/g powder, the “Stability … in Powder Concentrate” value ([1]; 30 days) was 5.94 mg/g powder and the “Stability … in Powder Concentrate” value ([1]; 60 days) was 5.66 mg/g powder. For the same molecule, the “Stability … in Powder Concentrate” value ([1]; 90 days) was 6.00 mg/g powder, the “Stability … in Powder Concentrate” value ([1]; 120 days) was 5.80 mg/g powder and the “Stability … in Powder Concentrate” value ([1]; 150 days) was 5.65 mg/g powder. For the same molecule, the “Stability … in Powder Concentrate” value ([1]; 180 days) was 5.93 mg/g powder, the “Stability … in Powder Concentrate” value ([1]; 210 days) was 5.83 mg/g powder and the “Stability … in Powder Concentrate” value ([1]; 240 days) was 5.98 mg/g powder. The “Stability … in Powder Concentrate” value ([1]; 270 days) was 5.72 mg/g powder, the “Stability … in Powder Concentrate” value ([1]; 300 days) was 5.84 mg/g powder and the “Stability … in Powder Concentrate” value ([1]; 330 days) was 6.01 mg/g powder. The “Stability … in Powder Concentrate” value ([1]; 360 days) was 5.97 mg/g powder, the “Stability … in Powder Concentrate” value ([1]; 390 days) was 5.93 mg/g powder and the “Stability … in Powder Concentrate” value ([1]; 420 days) was 5.94 mg/g powder. For the same molecule, the “Stability … in Powder Concentrate” value ([1]; 450 days) was 5.65 mg/g powder, the “Stability … in Powder Concentrate” value ([1]; 480 days) was 5.66 mg/g powder and the “Stability … in Powder Concentrate” value ([1]; 510 days) was 6.01 mg/g powder. The “Stability … in Powder Concentrate” value ([1]; 540 days) was 5.81 mg/g powder, the “Stability … in Powder Concentrate” value ([1]; 570 days) was 5.85 mg/g powder and the “storage time after which some slight degradation is shown” value (from here on “storage time”) ([2]; AB Red stored at 8° C.) was > 420 days. For the same molecule, the “storage time” value ([2]; AB Red stored at 21-25° C.) was > 390 days, the “Stability of Plant-Derived Cannabinoid Compounds in AB White, 8° C.” value (“Stability … 8° C.” for short) ([3]; AB White stored at 8° C., 0 days) was 28.5 µg/mL and the “Stability … 8° C.” value ([3]; AB White stored at 8° C., 1 days) was 27.65 µg/mL. For the same molecule, the “Stability … 8° C.” value ([3]; AB White stored at 8° C., 2 days) was 27.67 µg/mL, the “Stability … 8° C.” value ([3]; AB White stored at 8° C., 3 days) was 27.96 µg/mL and the “Stability … 8° C.” value ([3]; AB White stored at 8° C., 5 days) was 28.61 µg/mL. For the same molecule, the “Stability … 8° C.” value ([3]; AB White stored at 8° C., 8 days) was 28.47 µg/mL, the “Stability … 8° C.” value ([3]; AB White stored at 8° C., 9 days) was 28.44 µg/mL and the “Stability … 8° C.” value ([3]; AB White stored at 8° C., 10 days) was 27.87 µg/mL. The “Stability … 8° C.” value ([3]; AB White stored at 8° C., 11 days) was 28.13 µg/mL, the “Stability … 8° C.” value ([3]; AB White stored at 8° C., 12 days) was 28.10 µg/mL and the “Stability … 8° C.” value ([3]; AB White stored at 8° C., 15 days) was 27.99 µg/mL. The “Stability … 8° C.” value ([3]; AB White stored at 8° C., 16 days) was 28.04 µg/mL, the “Stability … 8° C.” value ([3]; AB White stored at 8° C., 17 days) was 27.84 µg/mL and the “Stability … 8° C.” value ([3]; AB White stored at 8° C., 18 days) was 27.87 µg/mL. For the same molecule, the “Stability … 8° C.” value ([3]; AB White stored at 8° C., 19 days) was 28.36 µg/mL, the “Stability … 8° C.” value ([3]; AB White stored at 8° C., 22 days) was 28.50 µg/mL and the “Stability … 8° C.” value ([3]; AB White stored at 8° C., 23 days) was 27.67 µg/mL. The “Stability … 8° C.” value ([3]; AB White stored at 8° C., 24 days) was 28.44 µg/mL, the “Stability … 8° C.” value ([3]; AB White stored at 8° C., 25 days) was 27.65 µg/mL and the “Stability … 8° C.” value ([3]; AB White stored at 8° C., 26 days) was 27.73 µg/mL. The “Stability … 8° C.” value ([3]; AB White stored at 8° C., 29 days) was 28.24 µg/mL, the “Stability … 8° C.” value ([3]; AB White stored at 8° C., 30 days) was 27.93 µg/mL and the “Stability … 8° C.” value ([3]; AB White stored at 8° C., 60 days) was 27.73 µg/mL. The “Stability … 8° C.” value ([3]; AB White stored at 8° C., 90 days) was 27.87 µg/mL, the “Stability … 8° C.” value ([3]; AB White stored at 8° C., 120 days) was 27.39 µg/mL and the “Stability … 8° C.” value ([3]; AB White stored at 8° C., 150 days) was 28.59 µg/mL. The “Stability … 8° C.” value ([3]; AB White stored at 8° C., 180 days) was 27.59 µg/mL, the “Stability … 8° C.” value ([3]; AB White stored at 8° C., 210 days) was 27.76 µg/mL and the “Stability … 8° C.” value ([3]; AB White stored at 8° C., 240 days) was 27.79 µg/mL. The “Stability … 8° C.” value ([3]; AB White stored at 8° C., 270 days) was 28.07 µg/mL, the “Stability … 8° C.” value ([3]; AB White stored at 8° C., 300 days) was 27.96 µg/mL and the “Stability … 8° C.” value ([3]; AB White stored at 8° C., 330 days) was 27.33 µg/mL. The “Stability … 8° C.” value ([3]; AB White stored at 8° C., 360 days) was 27.79 µg/mL, the “Stability … 8° C.” value ([3]; AB White stored at 8° C., 390 days) was 27.50 µg/mL and the “Stability … 8° C.” value ([3]; AB White stored at 8° C., 420 days) was 27.50 µg/mL. The “Stability … 8° C.” value ([3]; AB White stored at 8° C., 480 days) was 27.13 µg/mL, the “Stability … 8° C.” value ([3]; AB White stored at 8° C., 510 days) was 26.48 µg/mL and the “Stability … 8° C.” value ([3]; AB White stored at 8° C., 540 days) was 26.51 µg/mL. The “Stability … 8° C.” value ([3]; AB White stored at 8° C., 570 days) was 26.22 µg/mL, the “storage time” value ([3]; AB White stored at 8° C.) was > 480 days and the “storage time” value ([3]; AB White stored at 21-25° C.) was > 390 days.
